Laboratory results as given in US11498903B2 (BRISTOL-MYERS SQUIBB COMPANY, priority 2017, dated 2022).
Like-named read-outs stand apart in the source and are kept apart here.

Molecular target: T1, human APJ receptor (Homo sapiens, UniProt P35414)
T1 construct: expressed in transfected cells
T1 sequence (P35414 1-380): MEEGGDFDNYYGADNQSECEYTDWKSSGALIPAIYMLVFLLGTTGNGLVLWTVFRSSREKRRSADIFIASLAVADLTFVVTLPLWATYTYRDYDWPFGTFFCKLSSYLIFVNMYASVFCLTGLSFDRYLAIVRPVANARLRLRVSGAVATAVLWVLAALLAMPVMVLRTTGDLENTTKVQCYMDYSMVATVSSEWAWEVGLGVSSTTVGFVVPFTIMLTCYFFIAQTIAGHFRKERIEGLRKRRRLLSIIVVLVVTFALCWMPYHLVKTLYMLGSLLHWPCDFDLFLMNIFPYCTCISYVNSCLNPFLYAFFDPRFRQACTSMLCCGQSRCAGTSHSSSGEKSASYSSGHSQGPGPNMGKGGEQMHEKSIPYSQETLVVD
Assay: Intracellular cAMP accumulation assay (APJ hcAMP, HTRF)
Format: cell-based
Procedure, shortened: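 Inhibition of 2 μM forskolin-driven cAMP ([…] present) measured by HTRF in 5,000 HEK293 cells/well stably expressing human APJ, 30 min, room temperature. EC50 came from a variable-slope sigmoidal fit; Ymax was relative to (Pyr1)apelin-13 set at 100%.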

[1] = Table 1, HEK293 cells stably expressing human APJ receptor, inhibition of forskolin-mediated cAMP production, read-out: APJ hcAMP EC50
[2] = Table 3, HEK293 cells stably expressing human APJ receptor, read-out: APJ cAMP Human EC50
[3] = human APJ, cAMP, potency range class, read-out: APJ cAMP Human EC50

Compound | EC50 [1] | EC50 [2] | EC50 [3]
COc1cc2[nH]c(-c3cccc(Cl)c3-c3ccc(C(=O)NCc4ccc(Cl)cc4)cc3C(=O)O)nc2cc1F [Example 120, (S)-2′-chloro-4-{[(4-chlorophenyl)methyl]carbamoyl}-6′-(5-fluoro-6-methoxy-1H-1,3-benzodiazol-2-yl)-[1,1′-biphenyl]-2-carboxylic acid] | 10 to 100 nM | 10 to 100 nM | –
COc1cc2[nH]c(-c3cccc(Cl)c3-c3ccc(C(=O)NCC(C)C)cc3C(=O)O)nc2cc1F [Example 121, (S)-2′-chloro-6′-(5-fluoro-6-methoxy-1H-1,3-benzodiazol-2-yl)-4-[(2-methylpropyl)carbamoyl [1,1′-biphenyl]-2-carboxylic acid] | 10 to 100 nM | 10 to 100 nM | –
COc1cc2[nH]c(-c3cccc(Cl)c3-c3ccc(C(=O)NCCCN(C)C)cc3C(=O)O)nc2cc1F [Example 122, (S)-2′-chloro-4-{[3-(dimethylamino)propyl]carbamoyl}-6′-(5-fluoro-6-methoxy-1H-1,3-benzodiazol-2-yl)-[1,1′-biphenyl]-2-carboxylic acid] | 10 to 100 nM | 10 to 100 nM | –
COc1cc2[nH]c(-c3cccc(Cl)c3-c3ccc(C(=O)N4CCC(O)CC4)cc3C(=O)O)nc2cc1F [Example 123, (S)-2′-chloro-6′-(5-fluoro-6-methoxy-1H-1,3-benzodiazol-2-yl)-4-(4-hydroxypiperidine-1-carbonyl)-[1,1′-biphenyl]-2-carboxylic acid] | 10 to 100 nM | 10 to 100 nM | –
COc1cc2[nH]c(-c3cccc(Cl)c3-c3ccc(C(=O)N4CCCC4)cc3C(=O)O)nc2cc1F [Example 124, (S)-2′-chloro-6′-(5-fluoro-6-methoxy-2-yl)-4-(pyrrolidine-1-carbonyl)-[1,1′-biphenyl]-2-carboxylic acid] | 10 to 100 nM | 10 to 100 nM | –
COc1ccc(NC(=O)c2ccc(-c3c(Cl)cccc3-c3nc4cc(F)c(OC)cc4[nH]3)c(C(=O)O)c2)cc1 [Example 125, (S)-2′-chloro-6′-(5-fluoro-6-methoxy-1H-1,3-benzodiazol-2-yl)-4-[(4-methoxyphenyl)carbamoyl]-[1,1′-biphenyl]-2-carboxylic acid] | 10 to 100 nM | 10 to 100 nM | –
COc1cc2[nH]c(-c3cccc(Cl)c3-c3ccc(C(=O)N4CCC(Cc5ccccc5)CC4)cc3C(=O)O)nc2cc1F [Example 126, (S)-4-(4-benzylpiperidine-1-carbonyl)-2′-chloro-6′-(5-fluoro-6-methoxy-1H-1,3-benzodiazol-2-yl)-[1,1′-biphenyl]-2-carboxylic acid] | – | 101 to 500 nM | –
CCC[C@@H](NC(=O)c1ccc(-c2c(Cl)cccc2-c2nc3cc(OC)c(F)cc3[nH]2)c(C(=O)NOC)c1)c1ccccc1 [Example 127, 2′-chloro-6′-(6-fluoro-5-methoxy-1H-1,3-benzodiazol-2-yl)-N2-methoxy-N4-[(1R)-1-phenylbutyl]-[1,1′-biphenyl]-2,4-dicarboxamide] | – | < 10 nM | –
CCC[C@@H](NC(=O)c1ccc(-c2c(Cl)cccc2-c2nc3ccccc3[nH]2)c(-c2n[nH]c(=O)o2)c1)c1ccccc1 [Example 129, 2′-(1H-1,3-benzodiazol-2-yl)-6′-chloro-2-(5-oxo-4,5-dihydro-1,3,4-oxadiazol-2-yl)-N-[(1R)-1-phenylbutyl]-[1,1′-biphenyl]-4-carboxamide] | – | 10 to 100 nM | –
CCC[C@@H](NC(=O)c1ccc(-c2c(Cl)cccc2-c2nc3cc(OC)c(F)cc3[nH]2)c(-c2n[nH]c(=O)o2)c1)c1ccccc1 [Example 130, 2′-chloro-6′-(6-fluoro-5-methoxy-1H-1,3-benzodiazol-2-yl)-2-(5-oxo-4,5-dihydro-1,3,4-oxadiazol-2-yl)-N-[(1R)-1-phenylbutyl]-[1,1′-biphenyl]-4-carboxamide] | – | < 10 nM | –
CCC[C@@H](NC(=O)c1ccc(-c2c(C)cccc2-c2nc3ccccc3n2C)c(C(=O)O)c1)c1ccccc1 [Example 137, 2′-methyl-6′-(1-methyl-1H-1,3-benzodiazol-2-yl)-4-{[(1R)-1-phenylbutyl]carbamoyl}-[1,1′-biphenyl]-2-carboxylic acid] | 10 to 100 nM | 10 to 100 nM | –
COC[C@@H](NC(=O)c1ccc(-c2cc(Cl)ccc2-c2nc3ccccc3n2C)c(C(=O)O)c1)c1ccccc1 [Example 138, 5′-chloro-4-{[(1S)-2-methoxy-1-phenylethyl]carbamoyl}-2′-(1-methyl-1H-1,3-benzodiazol-2-yl)-[1,1′-biphenyl]-2-carboxylic acid] | 101 to 500 nM | 101 to 500 nM | –
CCC[C@@H](NC(=O)c1ccc(-c2c(C)cccc2-c2nc3ccccc3[nH]2)c(C(=O)O)c1)c1ccccc1 [Example 139, 2′-(1H-1,3-benzodiazol-2-yl)-6′-methyl-4-{[(1R)-1-phenylbutyl]carbamoyl}-[1,1′-biphenyl]-2-carboxylic acid] | – | < 10 nM | –
CCC[C@@H](NC(=O)c1ccc(-c2c(F)cccc2-c2nc3ccccc3[nH]2)c(C(=O)O)c1)c1ccccc1 [Example 140, 2′-(1H-1,3-benzodiazol-2-yl)-6′-fluoro-4-{[(1R)-1-phenylbutyl]carbamoyl}-[1,1′-biphenyl]-2-carboxylic acid] | – | < 10 nM | –
CCC[C@@H](NC(=O)c1ccc(-c2c(C)cccc2-c2nc3cc(OC)ccc3[nH]2)c(C(=O)O)c1)c1ccccc1 [Example 142, 2′-(5-methoxy-1H-1,3-benzodiazol-2-yl)-6′-methyl-4-{[(1R)-1-phenylbutyl]carbamoyl}-[1,1′-biphenyl]-2-carboxylic acid] | < 10 nM | < 10 nM | –
CCC[C@@H](NC(=O)c1ccc(-c2c(F)cccc2-c2nc3cc(OC)ccc3[nH]2)c(C(=O)O)c1)c1ccccc1 [Example 143, 2′-fluoro-6′-(5-methoxy-1H-1,3-benzodiazol-2-yl)-4-{[(1R)-1-phenylbutyl]carbamoyl}-[1,1′-biphenyl]-2-carboxylic acid] | – | < 10 nM | –
CCC[C@@H](NC(=O)c1ccc(-c2c(C)cccc2-c2nc3cc(C(C)(C)C)ccc3[nH]2)c(C(=O)O)c1)c1ccccc1 [Example 144, 2′-(5-tert-butyl-1H-1,3-benzodiazol-2-yl)-6′-methyl-4-{[(1R)-1-phenylbutyl]carbamoyl}-[1,1′-biphenyl]-2-carboxylic acid] | < 10 nM | < 10 nM | –
CCC[C@@H](NC(=O)c1ccc(-c2c(F)cccc2-c2nc3cc(C(C)(C)C)ccc3[nH]2)c(C(=O)O)c1)c1ccccc1 [Example 145, 2′-(5-tert-butyl-1H-1,3-benzodiazol-2-yl)-6′-fluoro-4-{[(1R)-1-phenylbutyl]carbamoyl}-[1,1′-biphenyl]-2-carboxylic acid] | < 10 nM | < 10 nM | –
CCC[C@@H](NC(=O)c1ccc(-c2c(C)cccc2-c2nc3c(O)cccc3[nH]2)c(C(=O)O)c1)c1ccccc1 [Example 148, 2′-(4-hydroxy-1H-1,3-benzodiazol-2-yl)-6′-methyl-4-{[(1R)-1-phenylbutyl]carbamoyl}-[1,1′-biphenyl]-2-carboxylic acid] | < 10 nM | < 10 nM | –
CCC[C@@H](NC(=O)c1ccc(-c2c(C)cccc2-c2nc3cnccc3[nH]2)c(C(=O)O)c1)c1ccccc1 [Example 149, 2′-{1H-imidazo[4,5-c]pyridin-2-yl}-6′-methyl-4-{[(1R)-1-phenylbutyl]carbamoyl}-[1,1′-biphenyl]-2-carboxylic acid] | – | < 10 nM | –
CCCC(CCC)NC(=O)c1ccc(-c2c(Cl)cccc2-c2nc3ccccc3[nH]2)c(C(=O)O)c1 [Example 153, (S)-2′-(1H-1,3-benzodiazol-2-yl)-6′-chloro-4-[(heptan-4-yl)carbamoyl]-[1,1′-biphenyl]-2-carboxylic acid] | – | 10 to 100 nM | –
CCOCC(NC(=O)c1ccc(-c2c(Cl)cccc2-c2nc3ccccc3[nH]2)c(C(=O)O)c1)c1ccccc1 [Example 157, (S)-2′-(1H-1,3-benzodiazol-2-yl)-6′-chloro-4-{[(1S)-2-ethoxy-1-phenylethyl]carbamoyl}-[1,1′-biphenyl]-2-carboxylic acid] | < 10 nM | < 10 nM | –
CCCC(NC(=O)c1ccc(-c2c(Cl)cccc2-c2nc3ccccc3[nH]2)c(C(=O)O)c1)c1cccc(Cl)c1 [Example 167, (S)-2′-(1H-1,3-benzodiazol-2-yl)-6′-chloro-4-{[1-(3-chlorophenyl)butyl]carbamoyl}-[1,1′-biphenyl]-2-carboxylic acid] | < 10 nM | – | < 10 nM
CC[C@H](NC(=O)c1ccc(-c2c(Cl)cccc2-c2nc3ccccc3[nH]2)c(C(=O)O)c1)c1ccc(Cl)cc1OC [Example 170, (S)-2′-(1H-1,3-benzodiazol-2-yl)-6′-chloro-4-{[1-(4-chloro-2-methoxyphenyl)propyl]carbamoyl}-[1,1′-biphenyl]-2-carboxylic acid] | < 10 nM | – | < 10 nM
CCC[C@H](NC(=O)c1ccc(-c2c(Cl)cccc2-c2nc3ccccc3[nH]2)c(C(=O)O)c1)c1ccccc1F [Example 174, (S)-2′-(1H-1,3-benzodiazol-2-yl)-6′-chloro-4-{[1-(2-fluorophenyl)butyl]carbamoyl}-[1,1-biphenyl]-2-carboxylic acid] | < 10 nM | – | < 10 nM
CCCC(NC(=O)c1ccc(-c2c(Cl)cccc2-c2nc3ccccc3[nH]2)c(C(=O)O)c1)c1ccc(Cl)cc1OC [Example 179, (S)-2′-(1H-1,3-benzodiazol-2-yl)-6′-chloro-4-{[1-(4-chloro-2-methoxyphenyl)butyl]carbamoyl}-[1,1′-biphenyl]-2-carboxylic acid] | < 10 nM | – | < 10 nM
